Data on one substance can be found in patent publication US6353019B1, “Macrocyclic lactones, compositions, and methods of use” (United States of America as represented by the Department …, priority 1997, dated 2002).

What all share (assay type): cell-based, human
Details in all cases: averaged, quadruplicate testing, 48 h, SRB

One assay deals with SNB-75. The assay is described as follows: NCI 60 cell-line screen, SNB-75 (Brain). On the procedure:
(§1) The NCI screen consists of a panel of 60 different human tumor cell lines against which compounds are tested over a defined range of concentrations to determine the relative degree of growth inhibition or cytotoxicity against each cell line. The design and operation of the screen is such that for each compound tested, both the absolute and relative sensitivities of individual cell lines comprising the screen are sufficiently reproducible that a characteristic profile or “fingerprint” of cellular response is generated. Compounds which are active in the NCI screen show pronounced differential tumor growth-inhibitory and/or cytotoxic effects to the diverse cell lines comprising the 60 cell-line panel. The degree of differential response between the most and least sensitive lines typically may be relatively small (e.g., 2- to 10-fold), or occasionally as great as 3-4 orders of magnitude. […]
(§2) In the screening assay, each agent is tested over a broad concentration range against every cell line in the panel. […] Test compounds are evaluated at five 10-fold dilutions. […] Optical densities are measured on automated plate readers, followed by computerized data acquisition, processing, storage, and availability for display and analysis. […]

The test system of a further assay is A549/ATCC. The assay is described as follows: NCI 60 cell-line screen, A549/ATCC (Lung). As for the experimental part: as §1, §2
The subject of another assay is SK-OV-3. The assay is described as follows: NCI 60 cell-line screen, SK-OV-3 (Ovary). As for the experimental part:
as §1, §2

For a further assay, the system named is EKVX. The assay is described as follows: NCI 60 cell-line screen, EKVX (Lung). As for the experimental part:
as §1, §2

The test system of a further assay is MCF-7. The assay is described as follows: NCI 60 cell-line screen, MCF-7 (Breast). On the procedure: as §1, §2
A further assay deals with HCT-15. The assay is described as follows: NCI 60 cell-line screen, HCT-15 (Colon). On the procedure: as §1, §2
For a further assay, the system named is CCRF-CEM. The assay is described as follows: NCI 60 cell-line screen, CCRF-CEM (Leukemia). As for the experimental part:
as §1, §2

For another assay, the system named is BT-549. The assay is described as follows: NCI 60 cell-line screen, BT-549 (Breast). As for the experimental part:
as §1, §2

A further assay concerns SR. The assay is described as follows: NCI 60 cell-line screen, SR (Leukemia). On the procedure: as §1, §2
Another assay relates to SW-620. The assay is described as follows: NCI 60 cell-line screen, SW-620 (Colon). As for the experimental part: as §1, §2
A further assay deals with NCI-H460. The assay is described as follows: NCI 60 cell-line screen, NCI-H460 (Lung). On the procedure: as §1, §2
In a further assay the test system is LOX-IMVI. The assay is described as follows: NCI 60 cell-line screen, LOX-IMVI (Melanoma). As for the experimental part:
as §1, §2

The test system of the next assay is SK-MEL-5. The assay is described as follows: NCI 60 cell-line screen, SK-MEL-5 (Melanoma). As for the experimental part: as §1, §2
For the next assay, the system named is MDA-N. The assay is described as follows: NCI 60 cell-line screen, MDA-N (Breast). On the procedure: as §1, §2
For another assay, the system named is SF-539. The assay is described as follows: NCI 60 cell-line screen, SF-539 (Brain). As for the experimental part: as §1, §2
The test system of a further assay is HT29. The assay is described as follows: NCI 60 cell-line screen, HT29 (Colon). On the procedure:
as §1, §2

Another assay has as its system T-47D. The assay is described as follows: NCI 60 cell-line screen, T-47D (Breast). On the procedure:
as §1, §2

In the next assay the test system is NCI-H322M. The assay is described as follows: NCI 60 cell-line screen, NCI-H322M (Lung). As for the experimental part: as §1, §2
Another assay deals with K-562. The assay is described as follows: NCI 60 cell-line screen, K-562 (Leukemia). As for the experimental part:
as §1, §2

The next assay deals with OVCAR-3. The assay is described as follows: NCI 60 cell-line screen, OVCAR-3 (Ovary). As for the experimental part: as §1, §2

Consider salicylihalamide A, for which the “negative log10 GI50” value in the assay with SNB-75 is 6.21; with A549/ATCC, 8.54; in the assay on SK-OV-3, 5.54; in the assay on EKVX, 7.52; with MCF-7, 7.12; in the assay with HCT-15 it was 8.44. The “negative log10 GI50” value with CCRF-CEM was 7.89; in the assay with BT-549, 9.30; in the assay with SR it was 8.44; in the assay on SW-620 it was 7.54; in the assay with NCI-H460, 9.01; in the assay on LOX-IMVI, 9.11. Also, the “negative log10 GI50” value is reported as 9.00 in the assay on SK-MEL-5; 8.00 in the assay with MDA-N; 7.89 in the assay on SF-539; 8.54 with HT29; 8.34 in the assay with T-47D; 6.72 in the assay on NCI-H322M. In addition, the “negative log10 GI50” value turned out to be 8.41 in the assay with K-562 and 7.03 in the assay with OVCAR-3.
